Results on five compounds are retold here after patent US20090023667A1 (priority 2005, published 2009).

Where two headings read alike, the source gives them in different places.

The subject of test [1] is Pyricularia oryzae. It counts as in vivo. The settings on record: in vivo.
In test [2] the test system is Pyricularia oryzae. Put plainly: whole plant or invertebrate. It is filed as in vivo. The settings on record: 60 ppm.
Test [3] concerns Rhizoctonia solani. Put plainly: Test Example 5: control test on paddy rice sheath blight, submerged application. It is filed as in vivo. The settings on record: submerged application of granule, 225 gai/10a. Here is the method: After 14 days from the treatment, Rhizoctonia solani cultured on a rice chaff/bran medium was inoculated on the basal of the rice plant. After 10 days from the inoculation, the extended lesion length of sheath blight of the whole stem was examined. The control value was calculated according to the following equation (3 replications).
(§1) Control Value=(1−average lesion length per a stem in the treated plot/average lesion length per a stem in the untreated plot)×100

Another test concerns Pythium sp. Put plainly: Test Example 9: control test on seedling blight (Pythium sp), irrigation. It is filed as in vivo. The settings on record: irrigation 500 ml per box. Here is the method: 150 g of rice seeds of rice (cultivar: Nihonbare) per a box was sowed on a commercial nursery box. After the sowing, the box was treated by irrigation with a compound solution which was diluted to the prescribed concentration at a ratio of 500 ml per a box before covering the seeds with soil. Infected soil, which was made by adding sterilized water to Pythium sp cultured on a PDA medium and pulverizing whole medium and mixing to a commercial soil, was used for a bed soil. After covering the seeds with soil, the seeds were incubated at 30 degree centigrade for 2 days and then arranged under a condition of 5 degree centigrade for 2 days to enhance disease emergence. After the low temperature treatment, the seeds were grown in a greenhouse.
Control Value=(1−number of infected seedlings in the treated plot/number of infected seedlings in the untreated plot)×100

In test [4] the test system is Pyricularia oryzae. It is filed as in vivo. The settings on record: in vivo. This is another data set of the same source.
For test [5], the system named is Rhizoctonia solani. Put plainly: Test Example 6: control test on paddy rice sheath blight, nursery box application. The settings on record: nursery box application of granule, 7.5 gai/box. It counts as in vivo. The protocol: After 30 days from the treatment, Rhizoctonia solani cultured on a rice chaff/bran medium was inoculated on the basal of the rice plant. After 10 days from the inoculation, the extended lesion length of sheath blight of the whole stem was examined. The control value was calculated according to the following equation (3 replications).
as §1

The subject of test [6] is Pyricularia oryzae. It counts as in vivo. The settings on record: in vivo. The source holds these as a separate data set.
Test [7] concerns Rhizoctonia solani. Put plainly: Test Example 4: control test on paddy rice sheath blight, spraying. It is filed as in vivo. The settings on record: 60 ppm. The protocol: A compound solution of a prescribed concentration was sprayed on three 1/5000a rice pots (cultivar: Koshihikari; 4 leaf stage). After one day from the spraying, Rhizoctonia solani cultured on a rice chaff/bran medium was inoculated on the basal of the rice plant. After 10 days from the inoculation, the extended lesion length of sheath blight of the whole stem was examined. The control value was calculated according to the following equation (3 replications).
as §1

Test [8] deals with bacterial seedling blight. Kind of test: Test Example 10: control test on bacterial seedling blight, seed immersion. It counts as in vivo. The settings on record: seed immersion 24 hours. The protocol:
150 g of dry rice seeds of naturally infected with bacterial seedling blight (cultivar: Nihonbare) was immersed in a compound solution which was diluted with water to have a prescribed concentration at a volume ratio of 1:1 (liquid temperature; 20 degree centigrade) for 24 hours and air-dried. Subsequently, the seeds were soaked in water at 15 degree centigrade for 4 days and subjected to a sprouting in water at 30 degree centigrade for 24 hours, and then sowed in a nursery box. After the sowing, the seeds were incubated at 30 degree centigrade for 2 days and grown in a greenhouse. After 21 days from the sowing, the severity index for 300 seedlings per each compound was examined on the basis of the following criteria, and the control value was calculated according to the following equation from the average severity obtained by averaging the severity index of each seedling.
Severity index 0: healthy seedling • 1: yellowing or etiolated seedling • 2: dead seedling (withered)
(§2) Control Value=(1−average severity in the treated plot/average severity in the untreated plot)×100

The next test relates to clubroot. Put plainly: Test Example 11: control test on clubroot of cabbages, soil treatment. The settings on record: dust formulation mixed in soil, 60 gai/10a. It counts as in vivo, Plasmodiophora brassicae. The protocol: A dust formulation in a prescribed amount was mixed in soil and cabbage seedlings (cultivar: Shiki-dori) were planted in the field where was recognized to be infected by clubroot. After 60 days from the treatment, plants were picked out, and clubroot formation was examined according to the degree of severity. The control value was calculated according to the following equation from the average severity obtained by averaging the severity index in each plot.
Severity index 0: No clubroot formed • 1: Cluroot was formed at a portion of from not less than 1% to less than 25% of the whole root • 2: Cluroot was formed at a portion of from not less than 25% to less than 50% of the whole root • 3: Cluroot was formed at a portion of from not less than 50% to less than 75% of the whole root • 4: Cluroot was formed at a portion of not less than 75% of the whole root
as §2

Consider `C=C(Cl)COC(=O)NC(CNC(=O)c1ccc(C)cc1)C(C)C` (stereo not shown) [Compound 15], for which the Control value in the test with Pyricularia oryzae [1] is reported as 95; in the test on Pyricularia oryzae [2], 94; in the test on Rhizoctonia solani [3] it was 5; in the test with Pythium sp (60 ppm), 4; in the test with Rhizoctonia solani [5] it was 3; with Pyricularia oryzae [6], 95. The compound further displayed a Control value in the test on Rhizoctonia solani [7] of 4. In the test on Pyricularia oryzae [4], the “Effect (class of control value)” value was “A (key: A: Not less than 80%; B: Not less than 50% to less than 80%; C: Less than 50%)”.
On to `CC(C)C(CNC(=O)c1cc2ccccc2o1)NC(=O)OCC(F)(F)F` (stereo not shown) [Compound 28], for which the Control value with Pyricularia oryzae [1] is recorded as 96; in the test with Pyricularia oryzae [2] it was 97; with Rhizoctonia solani [3], 6; with Rhizoctonia solani [5] it was 5; in the test on Pyricularia oryzae [6], 96; in the test with Rhizoctonia solani [7], 6. This compound also registered a Control value in test [8] (60 ppm) of 6. In addition, the “Effect (class of control value)” value in the test with Pyricularia oryzae [4] is listed as “A (key: A: Not less than 80%; B: Not less than 50% to less than 80%; C: Less than 50%)”.
Compound `O=[N+]([O-])c1ccc(NS(=O)(=O)c2ccc(Cl)c(C(F)(F)F)c2)c(Cl)c1` [Flusulfamide] gave a Control value in the test with clubroot of 93.
In the test with Pythium sp (800 ppm), `Cc1cc(O)no1` [Hydroxyisoxazole, reference compound] returned a Control value of 90.
Regarding `CCn1cc(C(=O)O)c(=O)c2cc3c(cc21)OCO3` [Oxolinic acid, reference compound], the Control value in test [8] (500 ppm) amounted to 89.
